Experiment: In vitro solubilization kinetics in buffer solution
Format: physicochemical
Conditions: buffer pH 7.4, 37° C., HPLC
Experimental: Solubilization Kinetics of the Double Microemulsions of the Invention
The “in vitro” solubilization kinetics was determined in buffer solution (pH 7.4, 37° C.); sample of the double microemulsion under testing is dispersed in tubes filled with 50 ml of buffer solution and placed over a thermostated shaking plate; at predetermined time intervals samples of the solution were filtered and then ultra-centrifuged; drug concentration was determined by HPLC, data are reported in Table 2.

- Drug concentration (0.5 hr): 50 ng/mL
- Drug concentration (1 hr): 100 ng/mL
- Drug concentration (3 hr): 300 ng/mL
- Drug concentration (8 hr): 500 ng/mL
- Drug concentration (24 hr): 1500 ng/mL
Structure (SMILES): CCC(C)n1ncn(-c2ccc(N3CCN(c4ccc(OCC5COC(Cn6cncn6)(c6ccc(Cl)cc6Cl)O5)cc4)CC3)cc2)c1=O (centres unmarked) [Itraconazole pure dispersion, Itraconazole]

From patent US20090202596A1, “PHARMACEUTICAL COMPOSITIONS WITH BIOLOGICAL BARRIERS PERMEATION ENHANCING PROPERTIES” (FARMATRON LIMITED, priority 2006, published 2009)
